# Data: patent US4963589A, “Methods for treating Giardia lamblia” (The University of North Carolina at Chapel Hill, priority 1988, dated 1990)
# Counter-ions that a name gives are not always drawn. Like-named read-outs stand apart in the source and are kept apart here.
# Columns and labels:
# [1] = tested on: Giardia lamblia trophozoites, WB strain (ATCC #30957); test: 3H-thymidine incorporation drug sensitivity assay, Giardia lamblia WB strain (ATCC 30957); format: cell-based; conditions: for IC50: Giardia duodenalis; for efficacy against Giardia lamblia (in words): qualitative statements on the results
# Method: Giardia lamblia trophozoites were obtained from logarithmically growing stock cultures. Into the wells of a 96 well U-bottom tissue culture plate (Costar) was placed 100 μl of modified TYI-S-33 medium containing 2.5×10^4 trophozoites. The tissue culture plate was maintained in an anerobic environment by placing it inside a plastic box modified to allow nitrogen to be passed through the box via inlet and outlet tubing which could be clamped shut. Nitrogen was passed through the box for 2 minutes and the container was placed in a 37° C. incubator gassed with 5% CO2 in air.
# Varying concentrations of ^3 H-thymidine (0.5, 1.0, 1.5 and 2.0 μCi/well) were added to wells containing 2.5×10^4 Giardia lamblia trophozoites at 2 hour intervals so that it might remain in contact with the trophozoites for 2 to 24 hours. After 24 hours of incubation, the cells were harvested with a multimash cell harvester by washing vigorously with ice-cold Hank's Balanced Salt Solution. Samples were collected on Whatman glass microfiber paper. the paper was air dried, samples were placed in 7 ml scintillation vials and the incorporation of ^3 H-thymidine was determined by liquid scintillation counting. Mean values were calculated from 5 replicates for each time point and concentration.
# One hundred μl of modified TYI-S-33 medium containing 2.5×10^4trophozoites was placed into each well of a 96-well U-bottom plate. The plates were incubated under anaerobic conditions for 24 hours. After 24 hours, the compounds to be tested were prepared from the 2 mM stock solutions and 100 μl each solution was added to yield concentrations of 1, 10, 100 and 1000 μMin the wells. Ten μl of a 150 μCi/ml solution of ^3 H-thymidine (SA=10 Ci/mmole) in modified TYI-S-33 was added 6 hours after the addition of drug to yield a final concentration of 1.5 μCi/well. After an additional 18 hours of incubation the cells were harvested. Five replicates were run for each drug concentration and the mean values determined. Non-specific binding of the ^3 H-thymidine to the microfiber paper was determined through the use of control wells to which no organisms were added. The activities of compounds tested were determined by comparing the incorporation of ^ 3 H-thymidine in the wells to which the compounds were added to that of wells of drug free controls. The drug concentration required to inhibit 50% incorporation of ^3 H-thymidine (IC50) was determined (Chou, 1974).
# [2] = tested on: Giardia lamblia Stock BRIS/83/HEPU/120; conditions: Table IV; Stock BRIS/83/HEPU/120 (Boreham et al., 1984); read-out: IC50 determined by 3H-thymidine incorporation; cited from earlier work
# [3] = tested on: Giardia lamblia Stock BRIS/83/HEPU/106; conditions: Table IV; Stock BRIS/83/HEPU/106 (Boreham et al., 1984); read-out: IC50 determined by 3H-thymidine incorporation; cited from earlier work
# [4] = tested on: Giardia lamblia Stock BRIS/82/HEPU/41; conditions: Table IV; Stock BRIS/82/HEPU/41 (Boreham et al., 1984); read-out: IC50 determined by 3H-thymidine incorporation; cited from earlier work
# [5] = tested on: Giardia lamblia Stock BRI/83/HEPU/136; conditions: Table IV; Stock BRI/83/HEPU/136 (Boreham et al., 1984); read-out: IC50 determined by 3H-thymidine incorporation; cited from earlier work
# [6] = ATCC30957, Table I, 50% inhibition of 3H-thymidine incorporation, WB strain, 24 h with drug, read-out: IC50, Giardia lamblia vs. para-amidines
# [7] = ATCC30957, Table II, 50% inhibition of 3H-thymidine incorporation, WB strain, 24 h with drug, read-out: IC50, Giardia lamblia vs. meta-amidines
# [8] = ATCC30957, Table IV, Stock WB (ATCC 30957), read-out: IC50 determined by 3H-thymidine incorporation
# [9] = ATCC30957, read-out: IC50, Giardia lamblia vs. para-amidines
# [10] = ATCC30957, Table III, 50% inhibition of 3H-thymidine incorporation, WB strain, 24 h with drug, read-out: IC50, Giardia lamblia vs. para-imidazolines
compound,measurement,setting,value
N=C(N)c1ccc(OCCCCOc2ccc(C(=N)N)cc2N)c(N)c1 [Example 9],IC50,[1]; [6],96.8 µM
N=C(N)c1cccc(OCCCCCCOc2cccc(C(=N)N)c2)c1 [Example 30],IC50,[1]; [7],84.2 µM
COc1cc(C(=N)N)ccc1OCCCOc1ccc(C(=N)N)cc1OC [Example 5],IC50,[1]; [6],3.2 µM
N=C(N)c1ccc(OCCCCOc2ccc(C(=N)N)cc2)cc1 [Example 8],IC50,[1]; [6],61.6 µM
CCN(CC)CCCC(C)Nc1c2ccc(Cl)cc2nc2ccc(OC)cc12 (centres unmarked) [Quinacrine . HCl],IC50,[2],1.59 µM
same,IC50,[1]; [8],1.41 µM
same,IC50,[3],1.18 µM
same,IC50,[4],1.09 µM
same,IC50,[5],4.02 µM
"N=C(N)c1ccc(OCCCCCOc2ccc(C(=N)N)cc2)cc1 [Example 15, reference compound]",IC50,[1]; [9],76.5 µM
same,efficacy against Giardia lamblia (in words),[1],moderately effective
N=C(N)c1ccc(OCCCOc2ccc(C(=N)N)cc2N)c(N)c1 [Example 4],IC50,[1]; [6],15.4 µM
N=C(N)c1cccc(OCCCCOc2cccc(C(=N)N)c2)c1 [Example 28],IC50,[1]; [7],106 µM
N=C(N)c1ccc(OCCCCCCOc2ccc(C(=N)N)cc2)cc1 [Example 23],IC50,[1]; [6],34.3 µM
COc1cc(C(=N)N)ccc1OCCCCOc1ccc(C(=N)N)cc1OC [Example 11],IC50,[1]; [6],68.8 µM
CN1CCN=C1c1ccc(OCCCCOc2ccc(C3=NCCN3C)cc2)cc1 [Example 33],IC50,[1]; [10],346 µM
N=C(N)c1ccc(OCCCCOc2ccc(C(=N)N)cc2[N+](=O)[O-])c([N+](=O)[O-])c1 [Example 10],IC50,[1]; [9],53.2 µM
N=C(N)c1ccc(OCCCCOc2ccc(C(=N)N)cc2Cl)c(Cl)c1 [Example 12],IC50,[1]; [6],27.7 µM
N=C(N)c1ccc(NCCCCCCNc2ccc(C(=N)N)cc2N)c(N)c1 [Example 26],IC50,[1]; [6],21.9 µM
N=C(N)c1ccc(OCCCCCOc2ccc(C(=N)N)cc2Cl)c(Cl)c1 [Example 19],IC50,[1]; [6],16.3 µM
N=C(N)c1ccc(NCCNc2ccc(C(=N)N)cc2N)c(N)c1 [Example 2],IC50,[1]; [6],744 µM
COc1cc(C2=NCCN2)ccc1OCCCCCOc1ccc(C2=NCCN2)cc1OC [Example 36],IC50,[1]; [10],47.1 µM
N=C(N)c1ccc(OCCCCCCOc2ccc(C(=N)N)cc2N)c(N)c1 [Example 24],IC50,[1]; [6],38.7 µM
N=C(N)c1ccc(NCCCNc2ccc(C(=N)N)cc2[N+](=O)[O-])c([N+](=O)[O-])c1 [Example 7],IC50,[1]; [9],84.2 µM
N=C(N)c1ccc(OCCCCCOc2ccc(C(=N)N)cc2[N+](=O)[O-])c([N+](=O)[O-])c1 [Example 17],IC50,[1]; [9],26.1 µM
c1cc(C2=NCCN2)ccc1OCCCCCOc1ccc(C2=NCCN2)cc1 [Example 34],IC50,[1]; [10],39.2 µM
CN1CCN=C1c1ccc(OCCCCCOc2ccc(C3=NCCN3C)cc2)cc1 [Example 35],IC50,[1]; [10],373 µM
N=C(N)c1ccc(NCCCNc2ccc(C(=N)N)cc2)cc1 [Example 6],IC50,[1]; [6],68.2 µM
N=C(N)c1cccc(OCCCCCOc2cccc(C(=N)N)c2)c1 [Example 29],IC50,[1]; [7],55.8 µM
N=C(N)c1ccc(OCCOc2ccc(C(=N)N)cc2N)c(N)c1 [Example 1],IC50,[1]; [6],1180 µM
N=C(N)c1cccc(OCCCOc2cccc(C(=N)N)c2)c1 [Example 27],IC50,[1]; [7],560 µM
c1cc(C2=NCCN2)ccc1OCCCCOc1ccc(C2=NCCN2)cc1 [Example 32],IC50,[1]; [10],26 µM
COc1cc(C(=N)N)ccc1OCCCCCOc1ccc(C(=N)N)cc1OC [Example 18],IC50,[1]; [6],24 µM
Cc1ncc([N+](=O)[O-])n1CCO [Metronidazole],IC50,[2],1.08 µM
same,IC50,[1]; [8],3.65 µM
same,IC50,[3],0.91 µM
same,IC50,[4],2.14 µM
same,IC50,[5],2.21 µM
N=C(N)c1ccc(NCCCCCNc2ccc(C(=N)N)cc2N)c(N)c1 [Example 21],IC50,[1]; [6],48.6 µM
N=C(N)c1ccc(OCCCOc2ccc(C(=N)N)cc2)cc1 [Example 3],IC50,[1]; [6],12.3 µM
N=C(N)c1ccc(NCCCCCCNc2ccc(C(=N)N)cc2)cc1 [Example 25],IC50,[1]; [6],4.2 µM
N=C(N)c1ccc(OCCCCCOc2ccc(C(=N)N)cc2N)c(N)c1 [Example 16],IC50,[1]; [6],66.3 µM
N=C(N)c1ccc(NCCCCNc2ccc(C(=N)N)cc2)cc1 [Example 13],IC50,[1]; [6],50.7 µM
COc1cc(C2=NCCN2)ccc1OCCCOc1ccc(C2=NCCN2)cc1OC [Example 31],IC50,[1]; [10],25.4 µM
same,efficacy against Giardia lamblia (in words),[1],slightly less efficacious than the amidine counterpart of Example 5
O=C1OCCN1N=Cc1ccc([N+](=O)[O-])o1 [Furazolidone],IC50,[2],2.5 µM
same,IC50,[1]; [8],1.9 µM
same,IC50,[3],0.74 µM
same,IC50,[4],0.6 µM
same,IC50,[5],0.43 µM
N=C(N)c1ccc(NCCCCNc2ccc(C(=N)N)cc2N)c(N)c1 [Example 14],IC50,[1]; [6],108 µM
N=C(N)c1ccc(NCCCCCNc2ccc(C(=N)N)cc2)cc1 [Example 20],IC50,[1]; [6],40.6 µM
N=C(N)c1ccc(NCCCCCNc2ccc(C(=N)N)cc2[N+](=O)[O-])c([N+](=O)[O-])c1 [Example 22],IC50,[1]; [9],29.9 µM
